From US5094857A, “Treatment of acne or androgenetic alopecia by topical administration of ethisterone” (priority 1987, dated 1992)

Tests used:
[1] = molecular target: T1, androgen receptor preparations of sebaceous glands (Mesocricetus auratus, UniProt A0A1U7QL32); experiment: Competitive binding analysis (displacement of tritium-marked R 1881); design: species or system Syrian hamster; conditions: for in vitro affinity at 50% blocking (rank order): displacement of 8 nM tritium-marked R 1881, FIG. 1; for affinity (RBA) for the androgen receptors, in words: displacement of tritium-marked R 1881
T1 construct: [3H]R1881 displacement with excess triamcinolone acetate
T1 sequence (A0A1U7QL32 1-900): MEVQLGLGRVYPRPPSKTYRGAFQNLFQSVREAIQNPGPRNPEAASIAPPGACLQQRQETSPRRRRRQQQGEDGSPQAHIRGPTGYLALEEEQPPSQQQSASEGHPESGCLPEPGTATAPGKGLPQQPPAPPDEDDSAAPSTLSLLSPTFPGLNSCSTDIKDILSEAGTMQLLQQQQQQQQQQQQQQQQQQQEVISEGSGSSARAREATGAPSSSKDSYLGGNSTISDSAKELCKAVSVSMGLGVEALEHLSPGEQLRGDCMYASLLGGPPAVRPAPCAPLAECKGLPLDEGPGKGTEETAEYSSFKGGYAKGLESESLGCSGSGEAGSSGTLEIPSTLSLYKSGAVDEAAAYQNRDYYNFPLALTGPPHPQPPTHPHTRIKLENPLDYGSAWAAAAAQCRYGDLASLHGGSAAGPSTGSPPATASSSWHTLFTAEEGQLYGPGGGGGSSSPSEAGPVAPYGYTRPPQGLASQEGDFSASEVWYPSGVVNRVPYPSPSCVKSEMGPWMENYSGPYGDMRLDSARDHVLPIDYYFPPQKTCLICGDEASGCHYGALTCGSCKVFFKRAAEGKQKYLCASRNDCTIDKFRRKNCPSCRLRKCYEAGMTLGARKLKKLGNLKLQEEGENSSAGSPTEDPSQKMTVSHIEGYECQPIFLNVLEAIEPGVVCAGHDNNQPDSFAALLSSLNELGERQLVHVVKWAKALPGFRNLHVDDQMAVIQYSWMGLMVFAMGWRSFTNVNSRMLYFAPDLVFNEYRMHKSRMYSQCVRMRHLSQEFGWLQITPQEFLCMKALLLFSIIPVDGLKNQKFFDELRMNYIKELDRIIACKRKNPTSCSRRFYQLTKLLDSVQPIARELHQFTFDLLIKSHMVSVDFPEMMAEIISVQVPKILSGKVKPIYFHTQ
Description: The standardisation basis in competitive binding analysis is the concentration of the competitor which, can displace 50% of a radioactively labeled reference substance from the receptor. This is conditioned upon the assumption that a relative binding efficiency (RPA) is proof of a high […] in the test material.
The comparison of the in vivo sebum suppression with RBA to the androgen receptor in vitro, should give the key to the answer of whether the substance itself or metabolites thereof, are responsible for the activity.
For the competitive study the web material of five ear shells was gathered. After homogenization in buffer A (10 mM-Tris-HCl-pH 7.4; 1.5 mM EDTA; 5 mM monothiogylcerine) cytosol was obtained as a supernate after ultracentrification at 120×10^3 g for thirty minutes at 4° C. The protein content was adjusted to between 1 to 5 mg/ml with a buffer A.
After a reaction time of 12 hours at 4° C. to achieve equilibrium, the unbound steroid hormones were removed from the reaction mixture by means of dextrancoated activated charcoal suspension (0.5% activated charcoal and 0.05% detran in […] Tris-HCl-buffer; pH 7.4). An aliquot of the supernate after centrifugation was measured in a fluid scintillation counter.

androgenetic alopezia = experiment: Hair growth material on bald spots in androgenetic alopezia (Example VI); type: in vivo; conditions: for hair growth on previously bald spot: 2% solution in 50% ethanol and 50% Tween 20, rubbed twice daily, 1 mg per cm^2, four weeks; for undesirable side effects: topical, twice daily, 2% solution
Method: A 2% solution of nor-ethisterone in 50% ethanol and 50% Tween 20, was utilized for the assistance in hair growth by androgenetic alopezia. The bald spots were rubbed twice daily with a sufficient amount of hair growth material to provide a concentration of 1 mg per cm^2 nor-ethisterone through the skin barrier to the receptor site.

gestogen receptors = molecular target: T2, gestogen receptors (Ovis aries, UniProt A0ACI6RU96); experiment: Binding to gestogen receptors in a sheep uterus (FIG. 2)
T2 sequence (A0ACI6RU96 1-911): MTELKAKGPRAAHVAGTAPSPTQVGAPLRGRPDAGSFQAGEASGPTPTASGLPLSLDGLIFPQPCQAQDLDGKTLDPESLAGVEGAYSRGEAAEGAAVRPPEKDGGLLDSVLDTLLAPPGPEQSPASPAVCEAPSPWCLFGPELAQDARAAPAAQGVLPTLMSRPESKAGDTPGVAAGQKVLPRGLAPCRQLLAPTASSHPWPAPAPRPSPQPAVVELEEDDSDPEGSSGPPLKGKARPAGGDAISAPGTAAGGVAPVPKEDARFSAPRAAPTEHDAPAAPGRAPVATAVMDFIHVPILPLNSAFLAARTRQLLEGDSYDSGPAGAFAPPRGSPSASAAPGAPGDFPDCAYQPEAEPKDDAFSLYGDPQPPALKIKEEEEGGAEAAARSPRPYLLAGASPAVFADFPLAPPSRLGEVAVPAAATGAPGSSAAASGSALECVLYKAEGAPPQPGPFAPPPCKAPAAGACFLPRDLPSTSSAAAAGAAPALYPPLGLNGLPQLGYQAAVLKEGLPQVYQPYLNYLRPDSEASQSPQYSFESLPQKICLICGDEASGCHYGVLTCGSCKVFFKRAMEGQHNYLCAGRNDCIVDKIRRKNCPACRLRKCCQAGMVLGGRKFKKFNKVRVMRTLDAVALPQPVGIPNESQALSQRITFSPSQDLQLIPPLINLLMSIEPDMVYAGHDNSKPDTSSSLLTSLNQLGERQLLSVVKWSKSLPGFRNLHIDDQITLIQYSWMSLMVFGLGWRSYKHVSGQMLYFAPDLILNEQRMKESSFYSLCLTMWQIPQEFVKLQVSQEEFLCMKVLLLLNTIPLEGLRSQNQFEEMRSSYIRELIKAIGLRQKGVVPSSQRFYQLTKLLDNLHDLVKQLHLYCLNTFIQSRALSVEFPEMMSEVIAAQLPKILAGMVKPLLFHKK
Description: These experiments relating to the competitive binding of different hormanal substances can only describe certain aspects of the binding kinetics, but not all aspects of the pharmacokinetics. It is thus necessary to test the biological effects of steroid hormones by in vivo methods.

[2] = system: skin upper surface lipids; experiment: Human studies: skin surface lipid content after topical ethisterone lotion; type: in vivo
Method: A 2% ethisterone formulation was prepared in accordance with Example I. Five male and five female human test subjects took part in the experiment who were treated on their left foreheads with the ethisterone lotion. The subjects applied the lotion twice a day at a concentration of approximately 0.1 mg per cm^2 of ethisterone applied to the receptors.
The lipid content of the upper skin surface of both left and right forehead portions were measured prior to the onset of therepy (0 control), in the second and the fourth weeks of therapy.
Initially the replacement sum was determined. The skin was first cleaned with cigarette paper dipped in acetone and stroked six to eight times over the test area. After sixty minutes the skin lipids were removed from the skin portion of the following manner. Cigarette paper was placed by means of tweezers on the segment to be measured and on the cigarette paper was placed a mass of 280 grams having a surface area of 5 cm^2. Thereafter, the paper was eluted with a mixture comprising 70 parts of acetone and 30 parts of methanol. The thus produced eluate was evaporated to dryness and treated with phosphovanillic acid, thereafter the eluate was evaluated by gas chromatography. Previously, the gas chromatograph had been calibrated with 25 standard skin lipids (mono-di-, triglyceride, cholesterol as well as cholesterol esters, oleic acid esters, having 10 to 18 carbon atoms as well as waxes having up to 28 carbon atoms).
The eluate was also subjected, to thin layer chromomatography. It is noted that generally, speaking the standard substances may be regarded as representative of skin upper surface lipids.

[3] = ethisterone in oil-in-water emulsion applied to the skin (summary statement)

Question: Which results are given for `CCCC1(O)CCC2C3CCC4CC(=O)CC(C)C4(C)C3CCC21C` (stereo not drawn) [17-alpha-PM, 17-alpha-propyl-mesterolone]?
Answer: in vitro affinity at 50% blocking (rank order) [1]: R 1881, 17-alpha-PM, ethisterone, CPA, SL and dexamethasone; affinity (RBA) for the androgen receptors, in words [1]: substantially higher affinity; hair growth on previously bald spot (androgenetic alopezia): practically the same result is obtained; undesirable side effects (androgenetic alopezia): no undesirable side effects were noted

Question: Which “in vitro affinity at 50% blocking (rank order)” value [1] does the source give for `C[C@@H]1C[C@H]2[C@@H]3CCC4=CC(=O)C=C[C@]4(C)[C@@]3(F)[C@@H](O)C[C@]2(C)[C@@]1(O)C(=O)CO` [dexamethasone] here?
Answer: R 1881, 17-alpha-PM, ethisterone, CPA, SL and dexamethasone

Question: And the “affinity (RBA) for the androgen receptors, in words” value [1]?
Answer: may be disregarded

Question: Which results are given for `C#C[C@]1(O)CC[C@H]2[C@@H]3CCC4=CC(=O)CC[C@]4(C)[C@H]3CC[C@@]21C` [ethisterone, 17-alpha-hydroxypregen-4-en-20-yn-3-one]?
Answer: in vitro affinity at 50% blocking (rank order) [1]: R 1881, 17-alpha-PM, ethisterone, CPA, SL and dexamethasone; affinity (RBA) for the androgen receptors, in words [1]: satisfactory middle place between 17-alpha-PM and synthetic R 1881; binding affinity to gestogen receptors (comparison) (gestogen receptors): nor-ethisterone has a higher binding affinity than progesterone and ethisterone; lipid content on treated skin upper surface area less than untreated area ([2]; 2% ethisterone lotion twice a day on left forehead, approx. 0.1 mg per cm^2, four week treatment): 25%; wax content reduced ([2]; 2% ethisterone lotion twice a day on left forehead, four week treatment): 75%; reduction of lipids which comprise waxy substances (C20 to C28) [2, 3]: 75 % by weight; reduction of total lipid content of the skin from the initial value [2, 3]: about 25%

Question: With `C#C[C@]1(O)CC[C@H]2[C@@H]3CCC4=CC(=O)CC[C@@H]4[C@H]3CC[C@@]21C` [nor-ethisterone, 17-hyroxy-19-norpregn-4-en-20-yn-3-one] as the compound, how does the “binding affinity to gestogen receptors (comparison)” value (gestogen receptors) read?
Answer: higher binding affinity than progesterone and ethisterone

Question: And the “hair growth on previously bald spot” value (androgenetic alopezia)?
Answer: a hair fuzz is noted on the previously bald spot

Question: And the undesirable side effects (androgenetic alopezia)?
Answer: no undesirable side effects were noted

Question: How did the “binding affinity to gestogen receptors (comparison)” value (gestogen receptors) turn out when `CC(=O)[C@H]1CC[C@H]2[C@@H]3CCC4=CC(=O)CC[C@]4(C)[C@H]3CC[C@]12C` [progesterone] was run?
Answer: nor-ethisterone has a higher binding affinity than progesterone and ethisterone
